Assay results as given in patent US4409314A, “Light-sensitive compounds, light-sensitive mixture, and light-sensitive copying material prepared therefrom” (Hoechst Aktiengesellschaft, priority 1980, dated 1983).
Where two headings read alike, the source gives them in different places.

What was measured:
[1] = format: physicochemical; conditions: for Solubility (%): 4320 min; for Appearance of solution in ethylene glycol monomethyl ether: no precipitations even after 3 days
Description: (§1) In each case, 1 to 4 g of crystalline diazo compound were stirred in 25 g of ethylene glycol monomethyl ether, which is the most important solvent in coating technology, for 2 hours at room temperature and the mixture was allowed to stand for a further 70 hours without stirring, in order to complete the crystallization of possible amorphous constituents. The mixture was then filtered off with suction, and the filter residue was washed successively with 10 ml of methanol and 10 ml of ether, dried in vacuo, and its weight was determined. The solubilities in ethylene glycol monomethyl ether, listed in Table 3, were calculated from the difference relative to the quantity employed.

[2] = Solubility in n-butyl acetate; format: physicochemical; conditions: 1 g crystalline diazo compound stirred 2 hours in 25 g n-butyl acetate
Description: as §1
In a further widely used solvent, namel
1 g of the crystalline diazo compound was stirred for 2 hours in 25 g of
nbutyl acetate. The mixtures were then worked up as in Example 1.

[3] = 3 g of compound in 25 g solvent

Solubility (%) [1] [%] | SMILES | other results
0.87 | COC(=O)c1ccc(OS(=O)(=O)c2cccc3c2C=CC(=[N+]=[N-])C3=O)cc1OS(=O)(=O)c1cccc2c1C=CC(=[N+]=[N-])C2=O [Compound 10] | –
2.3 | CC(C)CCOC(=O)c1ccc(OS(=O)(=O)C2=CC(=[N+]=[N-])C(=O)c3ccccc32)cc1OS(=O)(=O)C1=CC(=[N+]=[N-])C(=O)c2ccccc21 [Compound 11] | –
4.3 | CCOCCOC(=O)c1ccc(OS(=O)(=O)c2cccc3c2C=CC(=[N+]=[N-])C3=O)c(OS(=O)(=O)c2cccc3c2C=CC(=[N+]=[N-])C3=O)c1 [Compound 14] | –
4.7 | CC(C)CCOC(=O)c1ccc(OS(=O)(=O)c2cccc3c2C=CC(=[N+]=[N-])C3=O)c(OS(=O)(=O)c2cccc3c2C=CC(=[N+]=[N-])C3=O)c1 [Compound 13] | –
4.6 | CCCCCCCCCCCCOC(=O)c1cc(OS(=O)(=O)c2cccc3c2C=CC(=[N+]=[N-])C3=O)cc(OS(=O)(=O)c2cccc3c2C=CC(=[N+]=[N-])C3=O)c1 [Compound 18] | –
1.0 | [N-]=[N+]=C1C=Cc2c(cccc2S(=O)(=O)Oc2ccc(C(=O)c3ccccc3)c(OS(=O)(=O)c3cccc4c3C=CC(=[N+]=[N-])C4=O)c2OS(=O)(=O)c2cccc3c2C=CC(=[N+]=[N-])C3=O)C1=O [V, tris-1,2-naphthoquinone-2-diazide-5-sulfonic acid ester of 2,3,4-trihydroxy-benzophenone, reference compound] | Solubility (%) in butyl acetate [2]: 0.50%
7.5 | CCCCCCCCCCCCOC(=O)c1ccc(OS(=O)(=O)c2cccc3c2C=CC(=[N+]=[N-])C3=O)cc1OS(=O)(=O)c1cccc2c1C=CC(=[N+]=[N-])C2=O [Compound 17] | Solubility (%) in butyl acetate [2]: 2.03%
5.0 | CCOCCOC(=O)c1cc(OS(=O)(=O)c2cccc3c2C=CC(=[N+]=[N-])C3=O)cc(OS(=O)(=O)c2cccc3c2C=CC(=[N+]=[N-])C3=O)c1 [Compound 16] | –
3.7 | CCOCCOC(=O)c1ccc(OS(=O)(=O)C2=CC(=[N+]=[N-])C(=O)c3ccccc32)c(OS(=O)(=O)C2=CC(=[N+]=[N-])C(=O)c3ccccc32)c1 [Compound 15] | –

Continued, compound first:

SMILES | Solubility (%) [1] [%] | other results
CC(=O)c1ccc(OS(=O)(=O)c2cccc3c2C=CC(=[N+]=[N-])C3=O)cc1OS(=O)(=O)c1cccc2c1C=CC(=[N+]=[N-])C2=O [Compound 1] | 1.03 | –
CC(CC(=O)c1ccc(OS(=O)(=O)c2cccc3c2C=CC(=[N+]=[N-])C3=O)cc1OS(=O)(=O)c1cccc2c1C=CC(=[N+]=[N-])C2=O)CC(C)(C)C (stereo not shown) [Compound 5] | > 10.7 | Appearance of solution in ethylene glycol monomethyl ether [1, 3]: clear
CCCCC(=O)c1ccc(OS(=O)(=O)c2cccc3c2C=CC(=[N+]=[N-])C3=O)cc1OS(=O)(=O)c1cccc2c1C=CC(=[N+]=[N-])C2=O [Compound 2] | > 10.7 | Appearance of solution in ethylene glycol monomethyl ether [1, 3]: clear
CCCCC(CC)C(=O)c1ccc(OS(=O)(=O)c2cccc3c2C=CC(=[N+]=[N-])C3=O)cc1OS(=O)(=O)c1cccc2c1C=CC(=[N+]=[N-])C2=O (stereo not shown) [Compound 3] | > 13.8 | Appearance of solution in ethylene glycol monomethyl ether ([1]; 4 g of compound in 25 g solvent): clear
CC(CC(=O)c1ccc(OS(=O)(=O)C2=CC(=[N+]=[N-])C(=O)c3ccccc32)cc1OS(=O)(=O)C1=CC(=[N+]=[N-])C(=O)c2ccccc21)CC(C)(C)C (stereo not shown) [Compound 6] | 10.5 | –
CCCCCCCCCCCCCCCC(=O)c1ccc(OS(=O)(=O)C2=CC(=[N+]=[N-])C(=O)c3ccccc32)cc1OS(=O)(=O)C1=CC(=[N+]=[N-])C(=O)c2ccccc21 [Compound 8] | – | Solubility (%) in butyl acetate [2]: 1.75%
CCCCCCCCCCCCCCCC(=O)c1ccc(OS(=O)(=O)c2cccc3c2C=CC(=[N+]=[N-])C3=O)cc1OS(=O)(=O)c1cccc2c1C=CC(=[N+]=[N-])C2=O [Compound 7] | – | Solubility (%) in butyl acetate [2]: 1.03%
CCCCC(CC)C(=O)c1ccc(OS(=O)(=O)C2=CC(=[N+]=[N-])C(=O)c3ccccc32)cc1OS(=O)(=O)C1=CC(=[N+]=[N-])C(=O)c2ccccc21 (stereo not shown) [Compound 4] | 4.3 | –
